Measured values: patent publication US20090028925A1, “Novel Phosphinic Acid-Containing Thyromimetics” (priority 2005, published 2009)
Read-outs that look alike come from different tables or passages of the source.

Tests used:
[1] = target: T1, human thyroid hormone receptors TRα1 (Homo sapiens, UniProt P10827); assay: Receptor binding to TRα1 (gel filtration and scintillation proximity assay, labeled T3); settings: read-out: Ki TRα
T1 construct: made in house; host or cells: Sf9 insect cells (baculovirus)
T1 sequence (P10827 1-410 isoform P10827-2): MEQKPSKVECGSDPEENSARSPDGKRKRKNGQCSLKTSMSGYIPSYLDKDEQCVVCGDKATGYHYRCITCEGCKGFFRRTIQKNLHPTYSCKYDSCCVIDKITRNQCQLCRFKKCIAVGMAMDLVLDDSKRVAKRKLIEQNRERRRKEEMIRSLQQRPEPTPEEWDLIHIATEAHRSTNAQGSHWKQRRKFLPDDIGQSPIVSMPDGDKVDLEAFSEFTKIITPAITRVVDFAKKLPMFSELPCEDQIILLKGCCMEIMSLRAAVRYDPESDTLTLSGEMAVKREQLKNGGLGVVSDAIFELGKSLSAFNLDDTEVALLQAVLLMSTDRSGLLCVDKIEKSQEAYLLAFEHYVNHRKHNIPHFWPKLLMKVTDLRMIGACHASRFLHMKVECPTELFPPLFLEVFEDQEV
T1 sequence (P19793 1-462 partner): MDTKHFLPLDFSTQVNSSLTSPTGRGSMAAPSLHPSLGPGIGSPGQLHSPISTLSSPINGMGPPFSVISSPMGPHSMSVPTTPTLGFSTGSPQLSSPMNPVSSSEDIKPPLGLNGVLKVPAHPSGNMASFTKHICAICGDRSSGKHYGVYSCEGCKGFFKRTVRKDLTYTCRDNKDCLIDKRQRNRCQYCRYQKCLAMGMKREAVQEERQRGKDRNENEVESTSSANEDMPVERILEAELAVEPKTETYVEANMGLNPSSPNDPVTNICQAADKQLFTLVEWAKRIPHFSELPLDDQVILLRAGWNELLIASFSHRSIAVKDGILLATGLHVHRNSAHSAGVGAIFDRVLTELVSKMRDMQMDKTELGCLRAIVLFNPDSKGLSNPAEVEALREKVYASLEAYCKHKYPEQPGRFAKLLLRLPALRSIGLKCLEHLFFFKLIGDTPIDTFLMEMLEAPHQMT
Experimental: (§1) Methods: Baculoviruses expressing TRα1, TRβ1 and RXRα were generated using cDNA and other reagents from Invitrogen (Carlsbad, Calif.). To produce TR/RXR heterodimer proteins, the sf9 insect cells were first grown to a density of 1-5×10^5 cells/mL. […] and RXRα baculovirus stocks were added to the cell culture with a ratio of 1 to 1 (multiplicity of infection=10). The cells were harvested three days after the infection.
(§2) Binding of compounds to either the TRα1 or TRβ1 were also performed by means of scintillation proximity assays (SPA). The SPA assay, a common method used for the quantitation of receptor-ligand equilibria, makes use of special beads coated with a scintillant and a capture molecule, copper, which binds to the histidine-tagged α or β receptor.

[2] = target: T2, human thyroid hormone receptors TRβ1 (Homo sapiens, UniProt P10828); assay: Receptor binding to TRβ1 (gel filtration and scintillation proximity assay, labeled T3); settings: read-out: Ki TRβ
T2 construct: made in house; host or cells: Sf9 insect cells (baculovirus)
T2 sequence (P10828 1-461): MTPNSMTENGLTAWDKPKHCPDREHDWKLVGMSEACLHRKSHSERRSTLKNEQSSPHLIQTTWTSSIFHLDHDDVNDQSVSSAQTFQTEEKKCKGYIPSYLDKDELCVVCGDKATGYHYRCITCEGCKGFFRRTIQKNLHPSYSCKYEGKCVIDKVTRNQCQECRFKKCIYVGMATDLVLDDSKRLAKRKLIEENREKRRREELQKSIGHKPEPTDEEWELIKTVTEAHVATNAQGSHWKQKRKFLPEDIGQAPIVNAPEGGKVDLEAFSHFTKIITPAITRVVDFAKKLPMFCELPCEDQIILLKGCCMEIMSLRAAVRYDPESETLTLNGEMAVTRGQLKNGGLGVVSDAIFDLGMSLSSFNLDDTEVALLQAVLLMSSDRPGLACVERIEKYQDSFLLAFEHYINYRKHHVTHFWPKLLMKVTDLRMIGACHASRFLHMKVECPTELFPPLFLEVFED
T2 sequence (P19793 1-462 partner): T1 sequence (P19793 1-462 partner)
Experimental: as §1, §2

| Ki ([1]; SPA data) [µM] | Ki ([2]; SPA data) [µM] | Compound | Ki [1] [µM] | Ki [2] [µM] |
| --- | --- | --- | --- | --- |
| > 2 | > 2 | O=P(O)(O)Cc1cc(Cl)c(Oc2ccc(O)c(S(=O)(=O)N[C@@H]3C[C@H]4CC[C@@H]3C4)c2)c(Cl)c1 (relative stereo) [Compound 10, 3,5-dichloro-4-[4′-hydroxy-3′-(N-exo-2-norbornylsulfonamido)phenoxy]benzylphosphonic acid] | – | – |
| – | – | Cc1cc(NC(=O)P(=O)(O)O)cc(C)c1Oc1ccc(O)c(C(C)C)c1 [Compound 1, N-[3,5-dimethyl-4-(3′-iso-propyl-4′-hydroxyphenoxy)]carbamoylphosphonic acid] | 0.285 | 0.0361 |
| – | – | NC(Cc1cc(I)c(Oc2ccc(O)c(I)c2)c(I)c1)P(=O)(O)O (stereo not drawn) [Compound 2, 1-amino-2-[3,5-diiodo-4-(4′-hydroxy-3′-iodophenoxy)phenyl]ethylphosphonic acid] | 1.42 | 0.271 |
| 0.046 | 0.00542 | O=P(O)(O)CCc1cc(I)c(Oc2ccc(O)c(I)c2)c(I)c1 [Compound 3, 2-[3,5-diiodo-4-(4′-hydroxy-3′-iodophenoxy)phenyl]ethylphosphonic acid] | – | – |
| 0.0141 | 0.00099 | CC(C)c1cc(Oc2c(I)cc(CCP(=O)(O)O)cc2I)ccc1O [Compound 4, 2-[3,5-diiodo-4-(4′-hydroxy-3′-iso-propylphenoxy)phenyl]ethylphosphonic acid] | – | – |
| – | – | CC(C)c1cc(Oc2c(I)cc(CP(=O)(O)O)cc2I)ccc1O [Compound 5, 3,5-diiodo-4-(4′-hydroxy-3′-iso-propylphenoxy)benzylphosphonic acid] | 0.00184 | 0.00084 |
| > 2 | – | COc1cc(OCP(=O)(O)O)cc(OC)c1Cc1ccc(O)c(C(C)C)c1 [Compound 7-2, [3,5-dimethoxy-4-(4′-hydroxy-3′-iso-propylbenzyl)phenoxy]methylphosphonic acid] | – | 0.146 |
| > 2 | > 2 | COc1ccc(Cc2c(C)cc(OCP(=O)(O)O)cc2C)cc1C(C)C [Compound 7-4, [3,5-dimethyl-4-(3′-iso-propyl-4′-methoxybenzyl)phenoxy]methylphosphonic acid] | – | – |
| 0.067 | 0.0095 | CC(C)c1cc(Cc2c(Cl)cc(OCP(=O)(O)O)cc2Cl)ccc1O [Compound 7-5, [3,5-dichloro-4-(4′-hydroxy-3′-iso-propylbenzyl)phenoxy]methylphosphonic acid] | – | – |
| 0.898 | 0.09 | Cc1cc(Cc2c(C)cc(OCP(=O)(O)O)cc2C)ccc1O [Compound 7-7, [3,5-dimethyl-4-[4′-hydroxy-3′-methylbenzyl]phenoxy]methylphosphonic acid] | – | – |
| > 2 | 0.061 | CC(=O)Nc1ccc(Cc2c(C)cc(OCP(=O)(O)O)cc2C)cc1C(C)C [Compound 7-12, [4-(4′-acetylamino-3′-iso-propylbenzyl)-3,5-dimethylphenoxy]methylphosphonic acid] | – | – |
| 0.35 | 0.204 | O=P(O)(O)Cc1cc(Cl)c(Oc2ccc(O)c(S(=O)(=O)N3CCCCC3)c2)c(Cl)c1 [Compound 9, 3,5-dichloro-4-[4′-hydroxy-3′-(N-piperidinylsulfonamido)phenoxy]benzylphosphonic acid] | – | – |
| 1.74 | 1.32 | Cc1cc(OC[P@]2(=O)OCC[C@@H](c3cccc(Cl)c3)O2)cc(C)c1Cc1ccc(O)c(C(C)C)c1 [Compound 13-1-trans, (S)-2-[(3,5-dimethyl-4-(4′-hydroxy-3′-iso-propylbenzyl)phenoxy)methyl]-4-(3-chlorophenyl)-2-oxo-2λ^5-[1,3,2]-dioxaphosphonane] | – | – |
| 1.35 | 0.469 | Cc1cc(OC[P@]2(=O)OCC[C@@H](c3cccc(Br)c3)O2)cc(C)c1Cc1ccc(O)c(C(C)C)c1 [Compound 13-2-trans, 2-[(3,5-dimethyl-4-(4′-hydroxy-3′-iso-propylbenzyl)phenoxy)methyl]-4-(3-bromophenyl)-2-oxo-2λ^5-[1,3,2]-diox aphosphonane] | – | – |
| 2.01 | 2.46 | Cc1cc(OC[P@]2(=O)OCC[C@@H](c3cccc(F)c3)O2)cc(C)c1Cc1ccc(O)c(C(C)C)c1 [Compound 13-3-trans] | – | – |
| 2.13 | 1.81 | Cc1cc(OC[P@]2(=O)OCC[C@@H](c3cccnc3)O2)cc(C)c1Cc1ccc(O)c(C(C)C)c1 [Compound 13-4-trans, 2-[(3,5-dimethyl-4-(4′-hydroxy-3′-iso-propylbenzyl)phenoxy)methyl]-4-(pyrid-3-yl)-2-oxo-2λ^5-[1,3,2]-dioxaphosphonane] | – | – |
| 0.354 | 0.281 | Cc1cc(OC[P@]2(=O)OCC[C@@H](c3ccncc3)O2)cc(C)c1Cc1ccc(O)c(C(C)C)c1 [Compound 13-5-trans, 2-[(3,5-dimethyl-4-(4′-hydroxy-3′-iso-propylbenzyl)phenoxy)methyl]-4-(pyrid-4-yl)-2-oxo-2λ^5-[1,3,2]-dioxaphosphonane] | – | – |
| 1.53 | 1.57 | Cc1cc(OC[P@]2(=O)OCC[C@@H](c3ccc(Cl)cc3)O2)cc(C)c1Cc1ccc(O)c(C(C)C)c1 [Compound 13-6-trans, 2-[(3,5-dimethyl-4-(4′-hydroxy-3′-iso-propylbenzyl)phenoxy)methyl]-4-(4-chlorophenyl)-2-oxo-2λ^5-[1,3,2]-dioxaphosphonane] | – | – |
| 49.6 | 45.1 | Cc1cc(OC[P@@]2(=O)OCC[C@@H](c3cc(Cl)cc(Cl)c3)O2)cc(C)c1Cc1ccc(O)c(C(C)C)c1 [Compound 13-7-cis] | – | – |
| 1.55 | 3.8 | Cc1cc(OC[P@]2(=O)OCC[C@@H](c3cc(Cl)cc(Cl)c3)O2)cc(C)c1Cc1ccc(O)c(C(C)C)c1 [Compound 13-7-trans] | – | – |
| > 2 | > 2 | CCOC(=O)[C@@H](NP(=O)(COc1cc(C)c(Cc2ccc(O)c(C(C)C)c2)c(C)c1)N[C@H](C(=O)OCC)C(C)C)C(C)C [Compound 15-3, di-N-(1-ethoxycarbonyl-2-methyl-propylamino)[3,5-dimethyl-4-(3′-iso-propyl-4′-hydroxybenzyl)phenoxy]methylphosphonamide] | – | – |
| – | 0.128 | Cc1cc(CP(=O)(O)O)cc(C)c1Oc1ccc(O)c(C(C)C)c1 [Compound 19-3, [3,5-dimethyl-4-(4′-hydroxy-3′-iso-propylphenoxy)]benzylphosphonic acid] | 1.76 | – |
| > 2 | > 2 | Cc1cc(OCP(=O)(O)O)cc(C)c1Nc1ccc(O)c(C(C)C)c1 [Compound 20, [3,5-dimethyl-4-N-(4′-hydroxy-3-iso-propylphenylamino)phenoxy]methylphosphonic acid] | – | – |
| > 1.4 | > 0.18 | CC(C)c1cc(Oc2c(Cl)cc(C(=O)CP(=O)(O)O)cc2Cl)ccc1O [Compound 21, 2-[3,5-dichloro-4-(4′-hydroxy-3′-iso-propylphenoxy)phenyl]-2-oxoethylphosphonic acid] | – | – |
| > 2 | > 2 | Cc1cc(C(=O)NCP(=O)(O)O)cc(C)c1Oc1ccc(O)c(C(C)C)c1 [Compound 23, N-[3,5-dimethyl-4-(4′-hydroxy-3′-iso-propylphenoxy)benzamido]methyl phosphonic acid] | – | – |
| > 2 | > 2 | COc1cc(CCP(=O)(O)O)cc(OC)c1Cc1ccc(O)c(C(C)C)c1 [Compound 24, 2-[3,5-dimethoxy-4-(4′-hydroxy-3′-isopropylbenzyl)phenyl]ethylphosphonic acid] | – | – |
| > 2 | 0.092 | CCc1cc(Cc2c(C)cc(CCP(=O)(O)O)cc2C)ccc1O [Compound 24-4, 2-[3,5-dimethyl-4-(3′-Ethyl-4′-hydroxy-benzyl)phenyl]ethylphosphonic acid] | – | – |
